# Target: Tyrosine-protein kinase ABL1 (Homo sapiens, UniProt P00519)
# Experiment: Radiometric Filter-Binding Assay: For determination of ABL kinase activity, the radiometric filter-binding assay was used. The assay was performed by mixing 10 μL of the compound pre-diluted with 10 μL of ATP ([…] with 0.1 μCi [γ-33P]-ATP) with the phospho-acceptor peptide poly[Ala6Glu2LysHBr5Tyr1]=polyAEKY) in 20 mM Tris/HCl pH 7.5, 1 mM DTT, 10 mM MgCl2, 0.01 mM Na3VO4, 50 mM NaCl. 10 μL …
# Description: Radiometric Filter-Binding Assay: For determination of ABL kinase activity, the radiometric filter-binding assay was used. […] 10 μL of enzyme (ranging between 5 nM to 20 nM) was added to initiate the reaction. Pre-incubation of enzyme with compounds (when stated) was performed by exposing the enzyme to compounds prior to addition of the substrate mixture (ATP and/or peptide substrate). […] Filter-plates were washed 3× with 0.5% H3PO4, followed by addition of 30 μL scintillation cocktail (Microscint, Perkin Elmer) per well and then analysed in a TopCount NXT scintillation counter (Perkin Elmer).
# Chain of Tyrosine-protein kinase ABL1 (P00519 whole entry): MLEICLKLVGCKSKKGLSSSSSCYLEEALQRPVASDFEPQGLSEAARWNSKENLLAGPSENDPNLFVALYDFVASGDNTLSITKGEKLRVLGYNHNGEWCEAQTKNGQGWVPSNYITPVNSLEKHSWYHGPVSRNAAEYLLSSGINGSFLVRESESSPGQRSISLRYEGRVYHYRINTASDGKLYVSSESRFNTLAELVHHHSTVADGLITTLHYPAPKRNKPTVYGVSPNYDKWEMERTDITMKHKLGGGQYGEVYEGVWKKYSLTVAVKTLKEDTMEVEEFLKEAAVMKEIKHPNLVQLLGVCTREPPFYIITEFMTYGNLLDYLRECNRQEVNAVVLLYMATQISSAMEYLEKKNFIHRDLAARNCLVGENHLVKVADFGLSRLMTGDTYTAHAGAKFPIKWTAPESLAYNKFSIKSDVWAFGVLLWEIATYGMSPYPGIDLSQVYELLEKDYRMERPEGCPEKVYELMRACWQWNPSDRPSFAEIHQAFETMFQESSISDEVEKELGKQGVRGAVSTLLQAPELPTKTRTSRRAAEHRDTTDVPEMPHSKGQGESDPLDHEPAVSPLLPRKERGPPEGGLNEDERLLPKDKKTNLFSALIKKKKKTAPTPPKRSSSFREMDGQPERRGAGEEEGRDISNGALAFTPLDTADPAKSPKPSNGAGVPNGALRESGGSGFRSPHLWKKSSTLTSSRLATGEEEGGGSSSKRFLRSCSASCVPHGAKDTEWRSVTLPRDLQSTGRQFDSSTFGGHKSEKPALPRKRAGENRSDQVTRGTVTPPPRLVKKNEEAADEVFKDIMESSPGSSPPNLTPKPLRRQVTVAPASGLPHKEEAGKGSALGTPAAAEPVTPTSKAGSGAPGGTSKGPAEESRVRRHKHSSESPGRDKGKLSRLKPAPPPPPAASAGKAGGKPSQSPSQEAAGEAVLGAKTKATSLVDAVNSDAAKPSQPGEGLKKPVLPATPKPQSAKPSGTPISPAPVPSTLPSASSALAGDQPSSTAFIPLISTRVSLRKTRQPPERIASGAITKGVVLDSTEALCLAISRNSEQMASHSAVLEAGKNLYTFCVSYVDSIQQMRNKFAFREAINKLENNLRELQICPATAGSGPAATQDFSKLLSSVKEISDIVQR
compound,measurement,value
O=C(Nc1ccc(OC(F)(F)F)cc1)c1cnc(C2CCOCC2)c(-c2cncnc2)c1,IC50,3 nM
O=C(Nc1ccc(CC(F)(F)F)cc1)c1cccc(-c2cncnc2)c1,IC50,233 nM

# Reference: ChEMBL document CHEMBL3886649, “Compounds and compositions for inhibiting the activity of ABL1, ABL2 and BCR-ABL1” (2016)
